Where two headings read alike, the source gives them in different places.
Assay: First-in-human trial: pharmacokinetics in plasma and urine
Format: in vivo
Settings: for AUC(0-inf) / Cmax / half-life / AUC(0-t): human, plasma, oral, median (range); for half-life: read-out: T1/2 (converted); for AUC(0-t): read-out: AUC24hr
Experimental: Blood and urine samples were collected at prespecified time points for 24 h after initial dose and at days 2–3 (S2) and after multiple doses on days 3–4 (S1) and 22–23 (S3) across dose levels. Predose samples were collected on days 8, 15 and 22. Urine samples were collected during cycle 1.
Descriptive statistics were used to summarise the safety data, including all patients who received at least one dose of OSI-027. All patients who completed the pharmacokinetic sampling were included in the PK analyses, which used descriptive statistics to summarise AUC0–∞, AUC0–t, Cmax, Clast, Tmax, Tlast, %AUC extrapolated, T1/2, clearance (Cl/F) and volume of distribution (Vz/F). Exploratory analysis were planned to correlate pharmacodynamics and pharmacokinetics. Response to treatment was evaluated according to Response Evaluation Criteria in Solid Tumors (RECIST) ([Therasse et al, 2000]).

[1] = 5 mg, Schedule 3, 5 mg, Day 1, N=3
[2] = 5 mg, Schedule 3, 5 mg, Day 22, N=3
[3] = 10 mg, Schedule 1, 10 mg, Day 1, N=6
[4] = 10 mg, Schedule 1, 10 mg, Day 3, N=6
[5] = 10 mg, Schedule 3, 10 mg, Day 1, N=3
[6] = 10 mg, Schedule 3, 10 mg, Day 22, N=3
[7] = 15 mg, Schedule 1, 15 mg, Day 1, N=4
[8] = 15 mg, Schedule 1, 15 mg, Day 3, N=4
[9] = 20 mg, Schedule 1, 20 mg, Day 1, N=4
[10] = 20 mg, Schedule 1, 20 mg, Day 3, N=4
[11] = 20 mg, Schedule 3, 20 mg, Day 1, N=6
[12] = 20 mg, Schedule 3, 20 mg, Day 22, N=5
[13] = 25 mg, Schedule 3, 25 mg, Day 1, N=3
[14] = 25 mg, Schedule 3, 25 mg, Day 22, N=3
[15] = 30 mg, Schedule 1, 30 mg, Day 1, N=3
[16] = 30 mg, Schedule 1, 30 mg, Day 3, N=3
[17] = 35 mg, Schedule 3, 35 mg, Day 1, N=4
[18] = 35 mg, Schedule 3, 35 mg, Day 22, N=4

In the case of `COc1cccc2cc(-c3nc([C@H]4CC[C@H](C(=O)O)CC4)n4ncnc(N)c34)[nH]c12` [OSI-027], the accumulation (after once daily / continuous dosing) was “minimal accumulation”, the AUC(0-inf) [1] was 2140 ng·h/mL and the Cmax [1] was 236 ng/mL. For the same compound, the half-life [1] was 7.89 h, the Cmax [2] was 266 ng/mL and the AUC(0-t) [2] was 2040 ng·h/mL. It also gave a half-life [2] of 6.85 h, an AUC(0-inf) [3] of 5130 ng·h/mL and a Cmax [3] of 646 ng/mL. It also gave a half-life [3] of 5.98 h, a Cmax [4] of 602 ng/mL and an AUC(0-t) [4] of 4860 ng·h/mL. It also gave a half-life [4] of 7.74 h, an AUC(0-inf) (10 mg, Schedule 2, 10 mg, N=4) of 5530 ng·h/mL and a Cmax (10 mg, Schedule 2, 10 mg, N=4) of 705 ng/mL. It also gave a half-life (10 mg, Schedule 2, 10 mg, N=4) of 12.3 h, an AUC(0-inf) [5] of 4300 ng·h/mL and a Cmax [5] of 547 ng/mL. It also gave a half-life [5] of 7.24 h, a Cmax [6] of 457 ng/mL and an AUC(0-t) [6] of 3720 ng·h/mL. It also gave a half-life [6] of 6.54 h, an AUC(0-inf) [7] of 8460 ng·h/mL and a Cmax [7] of 1170 ng/mL. For the same compound, the half-life [7] was 7.12 h, the Cmax [8] was 1270 ng/mL and the AUC(0-t) [8] was 9210 ng·h/mL. It also gave a half-life [8] of 7.69 h, an AUC(0-inf) (15 mg, Schedule 2, 15 mg, N=7) of 25900 ng·h/mL and a Cmax (15 mg, Schedule 2, 15 mg, N=7) of 894 ng/mL. It also gave a half-life (15 mg, Schedule 2, 15 mg, N=7) of 19.3 h, an AUC(0-inf) [9] of 5780 ng·h/mL and a Cmax [9] of 804 ng/mL. It also gave a half-life [9] of 5.09 h, a Cmax [10] of 1350 ng/mL and an AUC(0-t) [10] of 5850 ng·h/mL. The half-life [10] was 5.97 h, the AUC(0-inf) (20 mg, Schedule 2, 20 mg, N=3) was 9840 ng·h/mL and the Cmax (20 mg, Schedule 2, 20 mg, N=3) was 1240 ng/mL. For the same compound, the half-life (20 mg, Schedule 2, 20 mg, N=3) was 7.65 h, the AUC(0-inf) [11] was 9460 ng·h/mL and the Cmax [11] was 1300 ng/mL. The half-life [11] was 7.03 h, the Cmax [12] was 1540 ng/mL and the AUC(0-t) [12] was 13700 ng·h/mL. The half-life [12] was 9.67 h, the AUC(0-inf) [13] was 25100 ng·h/mL and the Cmax [13] was 1640 ng/mL. The half-life [13] was 11.1 h, the Cmax [14] was 1790 ng/mL and the AUC(0-t) [14] was 15200 ng·h/mL. For the same compound, the half-life [14] was 15 h, the AUC(0-inf) [15] was 45100 ng·h/mL and the Cmax [15] was 3620 ng/mL. It also gave a half-life [15] of 11.3 h, a Cmax [16] of 2120 ng/mL and an AUC(0-t) [16] of 37800 ng·h/mL. It also gave a half-life [16] of 10 h, an AUC(0-inf) [17] of 20200 ng·h/mL and a Cmax [17] of 1590 ng/mL. The half-life [17] was 7.24 h, the Cmax [18] was 2300 ng/mL and the AUC(0-t) [18] was 31200 ng·h/mL.

Reference: paper PMC4984800, “A first in man, dose-finding study of the mTORC1/mTORC2 inhibitor OSI-027 in patients with advanced solid malignancies” (British Journal of Cancer, 2016)
